{"source": "patent US20260215419A1", "about": "“PLANT EXTRACTS WITH HERBICIDAL ACTIVITY” (Agrematch Ltd., priority 2023, published 2026)", "format_in_all_cases": "in vivo", "key": {"Solanum nigrum": {"system": "Solanum nigrum", "assay": "Post-emergence weed panel, visual damage score 0-100", "conditions": "Table 4; 8-day old plants; 0.8 ml per 80 cm^2 pot; scored 13 days after application; average of five pots; synthetic Rhein 1 gram/liter (1000 g/ha)", "protocol": "Damage assessment: Herbicidal activity was assessed and scored by visual inspection of the plants in comparison to plants treated with the formulation alone (with no plant extract) as control. Activity score is in the range of 0 to 100, where 0 represents no herbicidal activity like control plants and 100 represents the maximal herbicidal activity (i.e., total death of the plant). Herbicidal activity of extract sample A-1b was determined by post-emergence application on 8-day old plants (weeds) of the A. palmeri and S. viridis species and 11-day old plants (weeds) of Abutilon theophrasti, Solanum nigrum, Echinochloa colonum, Phalaris canarinesis and Lolium multiflorum that were grown at 16 hours/8 hours day/night cycles at 30° C./25° C., respectively. Leaf stage was typically 4-6 for A. palmeri, 3-4 for S. viridis, 3 for A. theophrasti and S. nigrum, 4 for E. colonum, and 2 for P. canarinesis and L. multiflorum. […] Herbicidal activity was assessed and scored 3 days after application, as described hereinabove. Herbicidal activity was determined by post-emergence application on 7-day old plants (weeds) of the A. palmeri and S. viridis species and 8-day old plants (weeds) of S. nigrum, and C. quinoa that were grown at 16 hours/8 hours day/night cycles at 30° C./25° C., respectively. […] Herbicidal activity was assessed and scored 13 days after application, as described hereinabove."}, "Setaria viridis": {"system": "Setaria viridis", "assay": "Post-emergence herbicidal activity, visual damage score 0-100", "conditions": "Table 4; 7-day old plants; 0.8 ml per 80 cm^2 pot; scored 13 days after application; average of five pots; synthetic Rhein 1 gram/liter (1000 g/ha)", "protocol": "(§1) Damage assessment: Herbicidal activity was assessed and scored by visual inspection of the plants in comparison to plants treated with the formulation alone (with no plant extract) as control. Activity score is in the range of 0 to 100, where 0 represents no herbicidal activity like control plants and 100 represents the maximal herbicidal activity (i.e., total death of the plant).\n(§2) The herbicidal activity of Rhein-containing extracts was determined by post-emergence application on 8-day old plants (weeds) of the Amaranthus palmeri and Setaria viridis species that were grown at 16 hours/8 hours day/night cycles at 30° C./25° C., respectively. Leaf stage was typically 4-6 for A. palmeri and 3-4 for S. viridis. […]\n(§3) Herbicidal activity was assessed and scored 4 days after application by visual inspection of the plants in comparison to plants treated with the control solution alone (with no active ingredient). […]\n(§4) Herbicidal activity of extract sample A-1b was determined by post-emergence application on 8-day old plants (weeds) of the A. palmeri and S. viridis species and 11-day old plants (weeds) of Abutilon theophrasti, Solanum nigrum, Echinochloa colonum, Phalaris canarinesis and Lolium multiflorum that were grown at 16 hours/8 hours day/night cycles at 30° C./25° C., respectively. […]\n(§5) Herbicidal activity was assessed and scored 13 days after application, as described hereinabove. […]"}, "Chenopodium quinoa": {"system": "Chenopodium quinoa", "assay": "Post-emergence weed panel, visual damage score 0-100", "conditions": "Table 4; 8-day old plants; 0.8 ml per 80 cm^2 pot; scored 13 days after application; average of five pots; synthetic Rhein 1 gram/liter (1000 g/ha)", "protocol": "Damage assessment: Herbicidal activity was assessed and scored by visual inspection of the plants in comparison to plants treated with the formulation alone (with no plant extract) as control. Activity score is in the range of 0 to 100, where 0 represents no herbicidal activity like control plants and 100 represents the maximal herbicidal activity (i.e., total death of the plant). Herbicidal activity was determined by post-emergence application on 7-day old plants (weeds) of the A. palmeri and S. viridis species and 8-day old plants (weeds) of S. nigrum, and C. quinoa that were grown at 16 hours/8 hours day/night cycles at 30° C./25° C., respectively. Leaf stage was typically 4-6 for A. palmeri, 3-4 for S. viridis, and 4 for S. nigrum and C. quinoa. Each treatment contained five 80 cm^2 pots, each containing about 4 plants of one of the tested weed species. Each pot was sprayed with 0.8 ml of either: • 1. the exemplary extract sample A-1b, in which plant source A powder was mixed with solution 1b for 1.5 hours before filtration, or • 2. 1 gram/liter synthetic Rhein molecule dissolved in 2% MIPA, 2% DASH and 0.25% Genapol solution, which is equivalent to 1000 g/ha. Herbicidal activity was assessed and scored 13 days after application, as described hereinabove."}, "Amaranthus palmeri": {"system": "Amaranthus palmeri", "assay": "Post-emergence herbicidal activity, visual damage score 0-100", "conditions": "Table 4; 7-day old plants; 0.8 ml per 80 cm^2 pot; scored 13 days after application; average of five pots; synthetic Rhein 1 gram/liter (1000 g/ha) in 2% MIPA, 2% DASH, 0.25% Genapol", "protocol": "as §1, §2, §3, §4, §5"}}, "data": [{"smiles": "O=C(O)c1cc(O)c2c(c1)C(=O)c1cccc(O)c1C2=O", "note": "[Synthetic Rhein, Rhein]", "values": [{"measurement": "Score (Solanum nigrum)", "setting": "Solanum nigrum", "value": 100}, {"measurement": "Score (Setaria viridis)", "setting": "Setaria viridis", "value": 97}, {"measurement": "Score (Chenopodium quinoa)", "setting": "Chenopodium quinoa", "value": 100}, {"measurement": "Score (Amaranthus palmeri)", "setting": "Amaranthus palmeri", "value": 100}]}]}
